{
  "source": "patent US12480137B2",
  "about": "“Plants having increased tolerance to herbicides” (BASF SE, priority 2014, dated 2025)",
  "assay_type_in_all_cases": "in vivo, Arabidopsis thaliana",
  "key": {"[1]": {"system": "Arabidopsis mutant line Cesa1_P1010L", "experiment": "Growth inhibition of Arabidopsis lines in 48-well plates, tolerance factor from IC50", "details": "growth inhibition seven to ten days after seeding", "excerpt": "(§1) For selection of cellulose biosynthesis inhibitor resistant plants EMS mutagenized seed populations of Arabidopsis thaliana are used. EMS mutagenized seed populations are either bought from Lehle Seeds (1102 South Industrial Blvd. Suite D, Round Rock, Texas USA) or are generated as described elsewhere (Heim D R, et. al. (1989) Plant Physiol. 90: 146-150). Causative mutations in CESA wildtype sequences (e.g. SEQ ID NO: 1 or 3) are identified as described by Scheible W R et. al. (2001, Proc. Natl. Acad. of Sci. 98: 10079-10084), McCourt et. al. (WO2013/142968) or with the use of next generation sequencing methods as described by Austin R S, et. al. (2011) Plant Journal 67: 715-725.\n(§2) Selected Arabidopsis thaliana lines were assayed for improved resistance to azines like 6-cyclopentyl-N4-(2,3,4,5,6-pentafluorophenyl)-1,3,5-triazine-2,4-diamine; 6-(1-fluoro-1-methyl-ethyl)-N4-(2,3,4,5,6-pentafluorophenyl)-1,3,5-triazine-2,4-diamine; 6-cyclohexyl-N2-(2,3,4,5,6-pentafluorophenyl)-1,3,5-triazine-2,4-diamine; 6-(2,6-difluorophenyl)-N2-(2,3,5,6-tetrafluorophenyl)-1,3,5-triazine-2,4-diamine; N2-(4-chloro-3,5,6-trifluoro-2-pyridyl)-6-(1-fluoro-1-methyl-ethyl)-1,3,5-triazine-2,4-diamine in 48-well plates. Therefore, M2 or M3 seeds are surface sterilized by stirring for 5 min in ethanol+water (70+30 by volume), rinsing one time with ethanol+water (70+30 by volume) and two times with sterile, deionized water. The seeds are resuspended in 0.1% agar dissolved in water (w/v) Four to five seeds per well are plated on solid nutrient medium consisting of half-strength murashige skoog nutrient solution, pH 5.8 (Murashige and Skoog (1962) Physiologia Plantarum 15: 473-497). Compounds are dissolved in dimethylsulfoxid (DMSO) and added to the medium prior solidification (final DMSO concentration 0.1%). Multi well plates are incubated in a growth chamber at 22° C., 75% relative humidity and 110 μmol Phot*m^−2*s^−1 with 14:10 h light:dark photoperiod. Growth inhibition is evaluated seven to ten days after seeding in comparison to wild type plants. Tolerance factors are calculated based on IC50 values of growth inhibition of transformed versus non-transformed Arabidopsis plants (Table 3)."}, "[2]": {"system": "Arabidopsis mutant line Cesa3_S1040L", "experiment": "Growth inhibition of Arabidopsis lines in 48-well plates, tolerance factor from IC50", "details": "growth inhibition seven to ten days after seeding", "excerpt": "as §1, §2"}, "[3]": {"system": "Arabidopsis mutant line Cesa3_S983F", "experiment": "Growth inhibition of Arabidopsis lines in 48-well plates, tolerance factor from IC50", "details": "growth inhibition seven to ten days after seeding", "excerpt": "as §1, §2"}, "[4]": {"system": "Arabidopsis mutant line Cesa1_G1009D", "experiment": "Growth inhibition of Arabidopsis lines in 48-well plates, tolerance factor from IC50", "details": "growth inhibition seven to ten days after seeding", "excerpt": "as §1, §2"}, "[5]": {"system": "wildtype Arabidopsis plants", "experiment": "Growth inhibition of Arabidopsis lines in 48-well plates, tolerance factor from IC50", "details": "growth inhibition seven to ten days after seeding", "excerpt": "as §1, §2"}, "[6]": {"system": "Arabidopsis mutant line Cesa3_S1037F", "experiment": "Growth inhibition of Arabidopsis lines in 48-well plates, tolerance factor from IC50", "details": "growth inhibition seven to ten days after seeding", "excerpt": "as §1, §2"}, "[7]": {"system": "Arabidopsis mutant line Cesa1_G1013R", "experiment": "Growth inhibition of Arabidopsis lines in 48-well plates, tolerance factor from IC50", "details": "growth inhibition seven to ten days after seeding", "excerpt": "as §1, §2"}, "[8]": {"system": "Cesa1_G1013R, fpx2-1 mutant line", "experiment": "Greenhouse phytotox, pre-emergent treatment", "method": "(§3) Additionally, M2 or M3 Arabidopsis plants are tested for improved tolerance to cellulose biosynthesis-inhibiting herbicides in greenhouse studies (e. g. with the following cellulose biosynthesis-inhibiting herbicides: 6-cyclopentyl-N4-(2,3,4,5,6-pentafluorophenyl)-1,3,5-triazine-2,4-diamine; 6-(1-fluoro-1-methyl-ethyl)-N4-(2,3,4,5,6-pentafluorophenyl)-1,3,5-triazine-2,4-diamine; N4-(4-chloro-3,5,6-trifluoro-2-pyridyl)-6-(1-fluoro-1-methyl-ethyl)-1,3,5-triazine-2,4-diamine; 6-(2,6-difluorophenyl)-N4-(2,3,5,6-tetrafluorophenyl)-1,3,5-triazine-2,4-diamine; N4-(4-bromo-2,3,5,6-tetrafluoro-phenyl)-6-(1-fluoro-1-methyl-ethyl)-1,3,5-triazine-2,4-diamine."}, "[9]": {"system": "Cesa1_P1010L, fpx2-2 mutant line", "experiment": "Greenhouse phytotox, pre-emergent treatment", "method": "as §3"}, "[10]": {"system": "A. thaliana WT L. erecta", "experiment": "Greenhouse phytotox, pre-emergent treatment", "method": "as §3"}, "[11]": {"system": "Cesa3_S1037F, fpx1-2 mutant line", "experiment": "Greenhouse phytotox, pre-emergent treatment", "method": "as §3"}, "[12]": {"system": "Cesa3_S983F, fpx1-3 mutant line", "experiment": "Greenhouse phytotox, pre-emergent treatment", "method": "as §3"}, "[13]": {"system": "Cesa1_G1009D, fpx2-3 mutant line", "experiment": "Greenhouse phytotox, pre-emergent treatment", "method": "as §3"}, "[14]": {"system": "Cesa3_S1040L, fpx1-1 mutant line", "experiment": "Greenhouse phytotox, pre-emergent treatment", "method": "as §3"}},
  "data": [
    {"smiles": "Nc1nc(Nc2c(F)c(F)c(F)c(F)c2F)nc(C2CCCCC2)n1", "note": "[6-cyclohexyl-N2-(2,3,4,5,6-pentafluorophenyl)-1,3,5-triazine-2,4-diamine]", "values": [
      {"measurement": "Relative tolerance rate (wildtype = 1.0)", "setting": "[1]", "value": 1},
      {"measurement": "Relative tolerance rate (wildtype = 1.0)", "setting": "[2]", "value": 10},
      {"measurement": "Relative tolerance rate (wildtype = 1.0)", "setting": "[3]", "value": 1},
      {"measurement": "Relative tolerance rate (wildtype = 1.0)", "setting": "[4]", "value": 1},
      {"measurement": "Relative tolerance rate (wildtype = 1.0)", "setting": "[5]", "value": 1},
      {"measurement": "Relative tolerance rate (wildtype = 1.0)", "setting": "[6]", "value": 1},
      {"measurement": "Relative tolerance rate (wildtype = 1.0)", "setting": "[7]", "value": 4}
    ]},
    {"smiles": "CC(C)(F)c1nc(N)nc(Nc2c(F)c(F)c(Br)c(F)c2F)n1", "note": "[N4-(4-bromo-2,3,5,6-tetrafluoro-phenyl)-6-(1-fluoro-1-methyl-ethyl)-1,3,5-triazine-2,4-diamine]", "values": [
      {"measurement": "Phytotox value on a scale from 0-100 (100 is 100% damage)", "setting": "[8]; 0.25 g ai/ha", "value": 10},
      {"measurement": "Phytotox value on a scale from 0-100 (100 is 100% damage)", "setting": "[8]; 0.98 g ai/ha", "value": 10},
      {"measurement": "Phytotox value on a scale from 0-100 (100 is 100% damage)", "setting": "[8]; 3.91 g ai/ha", "value": 35},
      {"measurement": "Phytotox value on a scale from 0-100 (100 is 100% damage)", "setting": "[8]; 15.63 g ai/ha", "value": 73},
      {"measurement": "Phytotox value on a scale from 0-100 (100 is 100% damage)", "setting": "[9]; 0.25 g ai/ha", "value": 25},
      {"measurement": "Phytotox value on a scale from 0-100 (100 is 100% damage)", "setting": "[9]; 0.98 g ai/ha", "value": 25},
      {"measurement": "Phytotox value on a scale from 0-100 (100 is 100% damage)", "setting": "[9]; 3.91 g ai/ha", "value": 88},
      {"measurement": "Phytotox value on a scale from 0-100 (100 is 100% damage)", "setting": "[9]; 15.63 g ai/ha", "value": 99},
      {"measurement": "Phytotox value on a scale from 0-100 (100 is 100% damage)", "setting": "[10]; 0.25 g ai/ha", "value": 8},
      {"measurement": "Phytotox value on a scale from 0-100 (100 is 100% damage)", "setting": "[10]; 0.98 g ai/ha", "value": 35},
      {"measurement": "Phytotox value on a scale from 0-100 (100 is 100% damage)", "setting": "[10]; 3.91 g ai/ha", "value": 97},
      {"measurement": "Phytotox value on a scale from 0-100 (100 is 100% damage)", "setting": "[10]; 15.63 g ai/ha", "value": 100},
      {"measurement": "Phytotox value on a scale from 0-100 (100 is 100% damage)", "setting": "[11]; 0.25 g ai/ha", "value": 28},
      {"measurement": "Phytotox value on a scale from 0-100 (100 is 100% damage)", "setting": "[11]; 0.98 g ai/ha", "value": 18},
      {"measurement": "Phytotox value on a scale from 0-100 (100 is 100% damage)", "setting": "[11]; 3.91 g ai/ha", "value": 33},
      {"measurement": "Phytotox value on a scale from 0-100 (100 is 100% damage)", "setting": "[11]; 15.63 g ai/ha", "value": 30},
      {"measurement": "Phytotox value on a scale from 0-100 (100 is 100% damage)", "setting": "[12]; 0.25 g ai/ha", "value": 35},
      {"measurement": "Phytotox value on a scale from 0-100 (100 is 100% damage)", "setting": "[12]; 0.98 g ai/ha", "value": 23},
      {"measurement": "Phytotox value on a scale from 0-100 (100 is 100% damage)", "setting": "[12]; 3.91 g ai/ha", "value": 25},
      {"measurement": "Phytotox value on a scale from 0-100 (100 is 100% damage)", "setting": "[12]; 15.63 g ai/ha", "value": 45},
      {"measurement": "Phytotox value on a scale from 0-100 (100 is 100% damage)", "setting": "[13]; 0.25 g ai/ha", "value": 50},
      {"measurement": "Phytotox value on a scale from 0-100 (100 is 100% damage)", "setting": "[13]; 0.98 g ai/ha", "value": 35},
      {"measurement": "Phytotox value on a scale from 0-100 (100 is 100% damage)", "setting": "[13]; 3.91 g ai/ha", "value": 68},
      {"measurement": "Phytotox value on a scale from 0-100 (100 is 100% damage)", "setting": "[13]; 15.63 g ai/ha", "value": 99},
      {"measurement": "Phytotox value on a scale from 0-100 (100 is 100% damage)", "setting": "[14]; 0.25 g ai/ha", "value": 13},
      {"measurement": "Phytotox value on a scale from 0-100 (100 is 100% damage)", "setting": "[14]; 0.98 g ai/ha", "value": 5},
      {"measurement": "Phytotox value on a scale from 0-100 (100 is 100% damage)", "setting": "[14]; 3.91 g ai/ha", "value": 63},
      {"measurement": "Phytotox value on a scale from 0-100 (100 is 100% damage)", "setting": "[14]; 15.63 g ai/ha", "value": 93}
    ]}
  ]
}
